Read-outs that look alike come from different tables or passages of the source.
System: HRE/Luc/HEK293 cells
Experiment: HRE (Hypoxia Response Element) luciferase assay
Assay type: cell-based, human
Conditions: for fold induction at 10 µM / fold induction at 100 µM: Homo sapiens; for HRE expression: low concentration of 1 µM
Procedure: • (a) HRE assay: Confirmation of increased in HRE expression levels by the test substance relative to the vehicle in HRE/Luc/HEK293 cells • * Less than a twofold increase at 100 µM, • ** More than a twofold increase at 100 µM, • *** More than a twofold increase at 10 µM, • **** More than a twofold increase at 1 µM, • Not performed.
It has been reported that in the brains of AD patients, blood supply is mostly insufficient, resulting in oxygen levels being up to 50% lower than those of normal individuals, leading to increased oxidative stress (ROS) and neuroinflammation. It has also been studied that when the HIF-1α (hypoxia inducible factor-1) factor binds to the HRE (hypoxia response element), it increases VEGF (vascular endothelial growth factor), which promotes the formation of new blood vessels, thereby increasing oxygen levels in the brain and helping to inhibit nerve cell damage.
A reporter gene containing luciferase, capable of verifying the level of HRE expression, was inserted into HEK-293 human embryonic kidney cells, and HRE/Luc/HEK293 cells were constructed by inserting a plasmid (HRE/Luc) with luciferase attached downstream of the HRE promoter that binds to HIF-1α using lipofectamine (Invitrogen).
To perform HRE luciferase analysis, HRE/Luc/HEK293 cells were seeded in 96-well culture plates at a cell density of 4 x 10^4 per well in minimal essential medium (MEM) containing 10% fetal bovine serum. After one day, the cell medium was removed and replaced with medium mixed with various concentrations of example compounds. Six hours after compound pretreatment, HRE/Luc/HEK293 cells were cultured under hypoxic conditions (O2 0.1%) for 18 hours. Subsequently, the cells were washed with phosphate buffer, lysed with lysis buffer, and then the luciferase reagent (Promega) for luciferase analysis was added. Afterward, changes in HRE expression levels associated with HIF-1 signaling were evaluated by measuring luminescence using an Infinite200 (Tecan).

[1] = HEK293, 18 h, Table 2 (Examples 75-109, 114), read-out: HRE-inceasing 10uM
[2] = HEK293, 18 h, Table 2 (Examples 75-109, 114), read-out: HRE-inceasing 100uM
[3] = HEK293, fold increase of HRE expression, hypoxic conditions (O2 0.1%) 18 hours, Table 2, read-out: HRE-increasing 10uM
[4] = HEK293, fold increase of HRE expression, hypoxic conditions (O2 0.1%) 18 hours, Table 2, read-out: HRE-increasing 100uM
[5] = HEK293, 18 h, Table 2 (Examples 37-74, 52), read-out: HKt-increasing 10uM
[6] = HEK293, 18 h, Table 2 (Examples 37-74, 52), read-out: HKt-increasing 100uM

SMILES: CC(C)c1ccc2nc(-c3ccc(O[C@@H]4OC[C@H](O)[C@H](O)[C@H]4O)cc3)oc2c1 [Example 89, (2S,3R,4S,5S)-2-(4-(6-isopropylbenzo[d]oxazol-2-yl)phenoxy)tetrahydro-2H-pyran-3,4,5-triol]
- fold induction at 10 µM [1]: 2.8
- fold induction at 100 µM [2]: < 1

SMILES: CC(C)c1ccc2nc(-c3ccc(O[C@H]4OC[C@H](O)[C@H](O)[C@H]4O)cc3)oc2c1 [Example 88, (2R,3R,4S,5S)-2-(4-(6-isopropylbenzo[d]oxazol-2-yl)phenoxy)tetrahydro-2H-pyran-3,4,5-triol]
- fold induction at 10 µM [1]: 1.7
- fold induction at 100 µM [2]: 3.1

SMILES: CC(C)c1ccc(Oc2ccc(O[C@H]3OC[C@@H](O)[C@H](O)[C@H]3O)c(F)c2)cc1 [Example 101, (2R,3R,4S,5R)-2-(2-fluoro-4-(4-isopropylphenoxy)phenoxy)tetrahydro-2H-pyran-3,4,5-triol]
- fold induction at 10 µM [1]: 3.7
- fold induction at 100 µM [2]: 2.5

SMILES: COc1ccc2oc(-c3ccc(O[C@H]4OC[C@@H](O)[C@H](O)[C@H]4O)cc3)nc2c1 [Example 93, (2R,3R,4S,5R)-2-(4-(5-methoxybenzo[d]oxazol-2-yl)phenoxy)tetrahydro-2H-pyran-3,4,5-triol]
- fold induction at 10 µM [1]: 2.8
- fold induction at 100 µM [2]: 2.3

SMILES: O[C@@H]1[C@@H](O)[C@H](Oc2ccc(Cc3cccnc3)cc2)OC[C@@H]1O [Example 24, (2S,3R,4S,5S)-2-(4-(pyridin-3-ylmethyl)phenoxy)tetrahydro-2H-pyran-3,4,5-triol]
- fold induction at 10 µM [3]: 1.1
- fold induction at 100 µM [4]: 1.1

SMILES: COc1ccc(-c2ccc(O[C@H]3OC[C@H](O)[C@H](O)[C@H]3O)cc2)cc1 [Example 84, (2R,3R,4S,5S)-2-((4'-methoxy-[1,1'-biphenyl]-4-yl)oxy)tetrahydro-2H-pyran-3,4,5-triol]
- fold induction at 10 µM [1]: 2.5
- fold induction at 100 µM [2]: 3.5

SMILES: O[C@@H]1[C@@H](O)[C@@H](Oc2ccc(Cc3ccc(OC4CCCC4)cc3)cc2)OC[C@@H]1O [Example 45, (2R,3R,4S,5S)-2-(4-(4-(cyclopentyloxy)benzyl)phenoxy)tetrahydro-2H-pyran-3,4,5-triol]
- fold induction at 10 µM [5]: 1.1
- fold induction at 100 µM [6]: 1.3

SMILES: COc1ccc(Cc2ccc(O[C@@H]3OC[C@H](O)[C@H](O)[C@H]3O)cc2)cc1 [Example 4]
- fold induction at 10 µM [3]: 1.1
- fold induction at 100 µM [4]: < 1
- HRE assay (increase in HRE expression levels by the test substance relative to the vehicle in HRE/Luc/HEK293 cells): α

SMILES: O[C@@H]1[C@@H](O)[C@@H](O)CO[C@@H]1Sc1ccc(Cc2ccccc2)cc1 [Example 26, (2R,3R,4S,5S)-2-((4-benzylphenyl)thio)tetrahydro-2H-pyran-3,4,5-thiol]
- fold induction at 10 µM [3]: 2.1
- fold induction at 100 µM [4]: 2.5

SMILES: COc1ccc(-c2ccc(O[C@H]3OC[C@H](O)[C@H](O)[C@H]3O)cc2)cn1 [Example 85, (2R,3R,4S,5S)-2-(4-(6-methoxypyridin-3-yl)phenoxy)tetrahydro-2H-pyran-3,4,5-triol]
- fold induction at 10 µM [1]: 1.3
- fold induction at 100 µM [2]: 2.6

SMILES: CC(C)c1ccc(Oc2ccc(O[C@H]3OC[C@H](O)[C@H](O)[C@H]3N=[N+]=[N-])cc2)cc1 [Example 69, (3S,4R,5R,6R)-5-azido-6-(4-(4-isopropylphenoxy)phenoxy) tetrahydro-2H-pyra-3,4-diol]
- fold induction at 10 µM [5]: 1.7
- fold induction at 100 µM [6]: 3

SMILES: CC(C)c1ccc(Oc2ccc(O[C@H]3OC[C@H](F)[C@H](O)[C@H]3O)cc2)cc1 [Example 58, (2R,3R,4R,5S)-5-fluoro-2-(4-(4-isopropylphenoxy)phenoxy)tetrahydro-2H-pyran-3,4-diol]
- fold induction at 10 µM [5]: 2.6
- fold induction at 100 µM [6]: 2.2

SMILES: Cc1ccc2oc(-c3ccc(O[C@@H]4OC[C@H](O)[C@H](O)[C@H]4O)c(F)c3)nc2c1 [Example 104, (2S,3R,4S,5S)-2-(2-fluoro-4-(5-methylbenzo[d]oxazol-2-yl)phenoxy)tetrahydro-2H-pyran-3,4,5-triol]
- fold induction at 10 µM [1]: 3.6
- fold induction at 100 µM [2]: 2
- HRE expression: more than threefold

SMILES: COc1ccc(C(c2ccc(O[C@H]3OC[C@H](O)[C@H](O)[C@H]3O)cc2)(C(F)(F)F)C(F)(F)F)cc1 [Example 32, (2R,3R,4S,5S)-2-(4-(1,1,1,3,3,3-hexafluoro-2-(4-methoxyphenyl)propan-2-yl)phenoxy)tetrahydro-2H-pyran-3,4,5-triol]
- fold induction at 10 µM [3]: 1.3
- fold induction at 100 µM [4]: 1.8

SMILES: CC(C)Oc1ccc(Cc2ccc(O[C@H]3OC[C@H](O)[C@H](O)[C@H]3O)cc2)cc1 [Example 44]
- fold induction at 10 µM [5]: 1.1
- fold induction at 100 µM [6]: 1.3

SMILES: CCc1ccc2c(-c3ccc(O[C@H]4OC[C@H](O)[C@H](O)[C@H]4O)cc3)coc2c1 [Example 95, (2R,3R,4S,5S)-2-(4-(6-ethylbenzofuran-3-yl)phenoxy) tetrahydro-2H-pyra-3,4,5-triol]
- fold induction at 10 µM [1]: 2.6
- fold induction at 100 µM [2]: 3.1

SMILES: COc1ccc(Cc2ccc(O[C@H]3OC[C@H](O)[C@H](O)[C@H]3O)cc2F)cc1 [Example 47, (2R,3R,4S,5S)-2-(3-fluoro-4-(4-methoxybenzyl)phenoxy)tetrahydro-2H-pyran-3,4,5-trio]
- fold induction at 10 µM [5]: 1
- fold induction at 100 µM [6]: 1.2

SMILES: COc1ccc(Oc2ccc(O[C@H]3OC[C@H](O)[C@H](O)[C@H]3O)cc2)cc1 [Example 55, (2R,3R,4S,5S)-2-(4-(4-methoxyphenoxy)phenoxy)tetrahydro-2H-pyran-3,4,5-triol]
- fold induction at 10 µM [5]: 1.8
- fold induction at 100 µM [6]: 2.9

SMILES: CC(C)c1cccc2nc(-c3cccc(O[C@H]4OC[C@H](O)[C@H](O)[C@H]4O)c3)oc12 [Example 97, (2R,3R,4S,5S)-2-(3-(7-isopropylbenzo[d]oxazol-2-yl)phenoxy)tetrahydro-2H-pyran-3,4,5-triol]
- fold induction at 10 µM [1]: 1.1
- fold induction at 100 µM [2]: 1.2

SMILES: CC(C)c1ccc(Cc2ccc(O[C@H]3OC[C@H](O)[C@H](O)[C@H]3O)cc2F)cc1 [Example 48, (2R,3R,4S,5S)-2-(3-fluoro-4-(4-isopropylbenzyl)phenoxy)tetrahydro-2H-pyran-3,4,5-triol]
- fold induction at 10 µM [5]: 1.3
- fold induction at 100 µM [6]: 2.3

SMILES: CC(C)c1ccc(Cc2ccc(O[C@H]3OC[C@@H](O)[C@H](O)[C@H]3O)cc2)cc1 [Example 43, (2R,3R,4S,5R)-2-(4-(4-isopropylbenzyl)phenoxy)tetrahydro-2H-pyran-3,4,5-triol]
- fold induction at 10 µM [5]: 3.3
- fold induction at 100 µM [6]: 2.5
- HRE expression: more than threefold

SMILES: COc1ccc2oc(-c3ccc(O[C@H]4OC[C@H](O)[C@H](O)[C@H]4O)cc3)nc2c1 [Example 91, (2R,3R,4S,5S)-2-(4-(5-methoxybenzo[d]oxazol-2-yl)phenoxy)tetrahydro-2H-pyran-3,4,5-triol]
- fold induction at 10 µM [1]: 2.4
- fold induction at 100 µM [2]: 2.8

SMILES: COc1ccc(Cc2ccc(O[C@H]3OC[C@H](O)[C@H](O)[C@H]3N)cc2)cc1 [Example 78]
- fold induction at 10 µM [1]: 12
- fold induction at 100 µM [2]: 2.4

SMILES: CC(C)c1ccc(Oc2ccc(O[C@H]3OC[C@H](O)[C@H](O)[C@H]3N)cc2)cc1 [Example 70, (3S,4R,5R,6R)-5-amino-6-(4-(4-isopropylphenoxy)phenoxy)tetrahydro-2H-pyran-3,4-diol]
- fold induction at 10 µM [5]: 1.2
- fold induction at 100 µM [6]: 3.1

SMILES: COc1ccc(Cc2ccc(O[C@H]3OC[C@H](O)[C@H](O)[C@H]3O)cc2)cc1OC [Example 17, (2R,3R,4S,5S)-2-(4-(3,4-dimethoxybenzyl)phenoxy)tetrahydro-2H-pyran-3,4-triol]
- fold induction at 10 µM [3]: 1.2
- fold induction at 100 µM [4]: 1.5

SMILES: CO[C@H]1[C@@H](Oc2ccc(Oc3ccc(C(C)C)cc3)cc2)OC[C@H](O)[C@@H]1O [Example 62, (3S,4S,5R,6R)-6-(4-(4-isopropylphenoxy)phenoxy)-5-methoxytetrahydro-2H-pyran 3,4-diol]
- fold induction at 10 µM [5]: 2.3
- fold induction at 100 µM [6]: 2.2

SMILES: COc1ccc(Cc2ccc(O[C@H]3OC[C@@H](O)[C@H](O)[C@H]3O)cc2)cc1 [Example 42, (2R,3R,4S,5R)-2-(4-(4-methoxybenzyl)phenoxy) tetrahydro-2H-pyran-3,4,5-triol]
- fold induction at 10 µM [5]: 2.4
- fold induction at 100 µM [6]: 3.1

SMILES: COc1ccc(Cc2ccc(O[C@H]3OC[C@H](O)[C@H](O)[C@H]3O)cc2Cl)cc1 [Example 38, (2R,3R,4S,5S)-2-(3-chloro-4-(4-methoxybenzyl)phenoxy)tetrahydro-2H-pyran-3,4,5-triol]
- fold induction at 10 µM [5]: 1.3
- fold induction at 100 µM [6]: 2.2

From patent publication EP4810508A1, “ARABINOSE DERIVATIVE COMPOUND, AND COMPOSITION COMPRISING SAME FOR PREVENTING OR TREATING DEGENERATIVE BRAIN DISEASES” (Digmbio. Inc., priority 2023, dated 2025)
